Assay results taken from ChEMBL document CHEMBL1126330, “Synthesis of RP-67,580, a new potent nonpeptide substance P antagonist” (Bioorg Med Chem Lett, 1992).
pKi: −log10 of the molar value.

Assays:
Substance-P receptor [1] = molecular target: Substance-P receptor (Rattus norvegicus, UniProt P14600); assay: Tested for binding affinity towards Tachykinin receptor 1 by using [3H]SP binding assay in rat brain membranes; type: cell membranes
Substance-P receptor [2] = molecular target: Substance-P receptor (Cavia porcellus, UniProt P30547); assay: Tested for inhibition of contractile effects of Tachykinin receptor 1 in guinea pig ileum preparation.; type: functional, tissue-based; settings: read-out: pA2 (converted)
Sequence of Substance-P receptor (Cavia porcellus, UniProt P30547) (P30547 whole entry): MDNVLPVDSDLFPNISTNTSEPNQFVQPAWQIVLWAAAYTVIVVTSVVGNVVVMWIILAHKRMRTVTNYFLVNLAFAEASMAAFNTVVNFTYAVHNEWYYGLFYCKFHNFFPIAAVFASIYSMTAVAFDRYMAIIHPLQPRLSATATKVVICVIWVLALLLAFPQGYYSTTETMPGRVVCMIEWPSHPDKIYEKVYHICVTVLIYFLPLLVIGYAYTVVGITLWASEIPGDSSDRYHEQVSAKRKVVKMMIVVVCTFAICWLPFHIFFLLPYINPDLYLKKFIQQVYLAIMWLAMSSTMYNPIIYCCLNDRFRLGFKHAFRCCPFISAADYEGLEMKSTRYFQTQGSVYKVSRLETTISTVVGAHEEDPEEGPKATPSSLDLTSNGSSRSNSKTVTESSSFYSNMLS

Sequence of Substance-P receptor (Rattus norvegicus, UniProt P14600) (P14600 whole entry): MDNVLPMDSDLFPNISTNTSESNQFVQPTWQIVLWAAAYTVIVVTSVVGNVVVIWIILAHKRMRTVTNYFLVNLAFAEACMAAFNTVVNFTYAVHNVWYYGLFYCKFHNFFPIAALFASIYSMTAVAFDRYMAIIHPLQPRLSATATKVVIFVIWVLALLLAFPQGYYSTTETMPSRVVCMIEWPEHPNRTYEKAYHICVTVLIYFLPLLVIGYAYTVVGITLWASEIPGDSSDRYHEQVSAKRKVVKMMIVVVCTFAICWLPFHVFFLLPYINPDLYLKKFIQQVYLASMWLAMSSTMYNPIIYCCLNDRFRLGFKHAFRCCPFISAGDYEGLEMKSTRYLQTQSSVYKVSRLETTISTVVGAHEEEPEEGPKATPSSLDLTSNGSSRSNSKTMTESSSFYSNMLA

COc1ccccc1CC(=N)N1C[C@@H]2C(=O)CCC(c3ccccc3)(c3ccccc3)[C@@H]2C1
pKi (Substance-P receptor [1]): 8.38
Kb (Substance-P receptor [2]): 63.1 nM
